Experimental findings from ChEMBL document CHEMBL1125198, “Synthesis, ligand binding, QSAR, and CoMFA study of 3 beta-(p-substituted phenyl)tropane-2 beta-carboxylic acid methyl esters” (J Med Chem, 1991) are described below.

As a reminder, the IC50 is the point on the concentration scale where inhibition reaches its midpoint. A lower IC50 goes with greater potency.

The test addresses Sodium-dependent dopamine transporter (Rattus norvegicus, UniProt P23977). In words: Affinity against cocaine binding site of dopamine transporter in rat striatum using [3H]2b as radioligand. The format is tissue-based.

Sodium-dependent dopamine transporter, sequence (P23977 whole entry): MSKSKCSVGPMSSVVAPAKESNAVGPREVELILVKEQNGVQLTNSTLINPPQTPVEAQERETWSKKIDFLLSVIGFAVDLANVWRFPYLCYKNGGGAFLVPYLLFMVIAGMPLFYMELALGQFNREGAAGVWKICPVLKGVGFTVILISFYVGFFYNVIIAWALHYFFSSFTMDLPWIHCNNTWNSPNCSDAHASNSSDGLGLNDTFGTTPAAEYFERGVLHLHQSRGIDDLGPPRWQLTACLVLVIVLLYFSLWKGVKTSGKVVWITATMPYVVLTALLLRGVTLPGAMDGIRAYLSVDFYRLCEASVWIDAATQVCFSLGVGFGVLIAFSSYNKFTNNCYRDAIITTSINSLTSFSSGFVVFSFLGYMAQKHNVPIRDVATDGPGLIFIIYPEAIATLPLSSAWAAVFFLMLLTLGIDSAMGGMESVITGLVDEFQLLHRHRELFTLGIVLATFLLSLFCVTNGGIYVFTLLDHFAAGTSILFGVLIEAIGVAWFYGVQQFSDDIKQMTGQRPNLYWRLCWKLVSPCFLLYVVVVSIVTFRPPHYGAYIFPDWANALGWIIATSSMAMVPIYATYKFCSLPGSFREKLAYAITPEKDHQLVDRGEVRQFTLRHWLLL

For `COC(=O)[C@@H]1C2CC[C@H](C[C@@H]1c1ccc(N=[N+]=[N-])cc1)N2C`, the 50% inhibitory concentration (IC50) amounted to 2.12 nM.

For `COC(=O)C1C2CC[C@H](C[C@H]1c1ccc(C)cc1)N2C` (some centres not stated), the half-inhibitory concentration (IC50) is 1.71 nM.

`CCC(=O)Nc1ccc([C@H]2C[C@H]3CCC([C@H]2C(=O)OC)N3C)cc1` returned an IC50 of 68 nM. Consider `COC(=O)C1C2CC[C@H](C[C@H]1c1ccc(Br)cc1)N2C` (some centres not stated), for which the IC50 was 1.81 nM. As for `COC(=O)[C@@H]1C2CC[C@H](C[C@@H]1c1ccccc1)N2C`, the figure is 23 nM; as for `COC(=O)C1C2CC[C@H](C[C@@H]1c1ccc(Cl)cc1)N2C` (some centres not stated), 1.17 nM; as for `COC(=O)C1C2CC[C@H](C[C@@H]1c1ccc(I)cc1)N2C` (some centres not stated), 1.26 nM. The figure for `CCOC(=O)Nc1ccc([C@H]2C[C@H]3CCC([C@H]2C(=O)OC)N3C)cc1` is 316 nM.

In turn, `COC(=O)[C@@H]1C2CC[C@H](C[C@@H]1c1ccc(C(F)(F)F)cc1)N2C` displayed an IC50 of 13.1 nM. As for `COC(=O)[C@@H]1C2CC[C@H](C[C@@H]1c1ccc(NC(C)=O)cc1)N2C`, the figure is 64.2 nM; as for `COC(=O)[C@@H]1C2CC[C@H](C[C@@H]1c1ccc(N)cc1)N2C`, 24.8 nM; as for `COC(=O)[C@@H]1C2CC[C@H](C[C@@H]1c1cccs1)N2C`, 257 nM.
